Measured values as given in ChEMBL document CHEMBL4219122, “Synthesis and biological evaluation of histone deacetylase and DNA topoisomerase II-Targeted inhibitors” (Bioorg Med Chem, 2018).
pIC50: −log10 of the molar value. The source made the active and inactive calls. The rule behind the calls is not given here.

Columns and labels:
[1] = biological target: T1, DNA topoisomerase 2-alpha (Homo sapiens, UniProt P11388); experiment: Inhibition of human placenta topoisomerase 2alpha assessed as reduction in pBR322 supercoiled DNA relaxation after 30 mins by ethidium bromide staining based agarose gel electrophoresis
MCF7 = experiment: Growth inhibition of human MCF7 cells after 48 hrs by sulforhodamine B-based colorimetric assay; assay type: functional, cell-based; conditions: MCF7, 48 h; for GI50: read-out: GI50
DU-145 = experiment: Growth inhibition of human DU145 cells after 48 hrs by sulforhodamine B-based colorimetric assay; assay type: functional, cell-based; conditions: DU-145, 48 h; for GI50: read-out: GI50
Histone deacetylase 1 [2] = biological target: T2, Histone deacetylase 1 (Homo sapiens, UniProt Q13547); experiment: Inhibition of recombinant human HDAC1 expressed in HEK293T cells using Ac-KGLGK(Ac)-MCA as substrate after 30 mins in presence of DTT by fluorescence assay
[3] = biological target: T3, Protein deacetylase HDAC6 (Mus musculus, UniProt Q9Z2V5); experiment: Inhibition of recombinant mouse HDAC6 expressed in HEK293T cells co-expressing mouse HDA2 using Ac-KGLGK(Ac)-MCA as substrate after 30 mins in presence of DTT by fluorescence assay
T3 sequence (Q9Z2V5 whole entry): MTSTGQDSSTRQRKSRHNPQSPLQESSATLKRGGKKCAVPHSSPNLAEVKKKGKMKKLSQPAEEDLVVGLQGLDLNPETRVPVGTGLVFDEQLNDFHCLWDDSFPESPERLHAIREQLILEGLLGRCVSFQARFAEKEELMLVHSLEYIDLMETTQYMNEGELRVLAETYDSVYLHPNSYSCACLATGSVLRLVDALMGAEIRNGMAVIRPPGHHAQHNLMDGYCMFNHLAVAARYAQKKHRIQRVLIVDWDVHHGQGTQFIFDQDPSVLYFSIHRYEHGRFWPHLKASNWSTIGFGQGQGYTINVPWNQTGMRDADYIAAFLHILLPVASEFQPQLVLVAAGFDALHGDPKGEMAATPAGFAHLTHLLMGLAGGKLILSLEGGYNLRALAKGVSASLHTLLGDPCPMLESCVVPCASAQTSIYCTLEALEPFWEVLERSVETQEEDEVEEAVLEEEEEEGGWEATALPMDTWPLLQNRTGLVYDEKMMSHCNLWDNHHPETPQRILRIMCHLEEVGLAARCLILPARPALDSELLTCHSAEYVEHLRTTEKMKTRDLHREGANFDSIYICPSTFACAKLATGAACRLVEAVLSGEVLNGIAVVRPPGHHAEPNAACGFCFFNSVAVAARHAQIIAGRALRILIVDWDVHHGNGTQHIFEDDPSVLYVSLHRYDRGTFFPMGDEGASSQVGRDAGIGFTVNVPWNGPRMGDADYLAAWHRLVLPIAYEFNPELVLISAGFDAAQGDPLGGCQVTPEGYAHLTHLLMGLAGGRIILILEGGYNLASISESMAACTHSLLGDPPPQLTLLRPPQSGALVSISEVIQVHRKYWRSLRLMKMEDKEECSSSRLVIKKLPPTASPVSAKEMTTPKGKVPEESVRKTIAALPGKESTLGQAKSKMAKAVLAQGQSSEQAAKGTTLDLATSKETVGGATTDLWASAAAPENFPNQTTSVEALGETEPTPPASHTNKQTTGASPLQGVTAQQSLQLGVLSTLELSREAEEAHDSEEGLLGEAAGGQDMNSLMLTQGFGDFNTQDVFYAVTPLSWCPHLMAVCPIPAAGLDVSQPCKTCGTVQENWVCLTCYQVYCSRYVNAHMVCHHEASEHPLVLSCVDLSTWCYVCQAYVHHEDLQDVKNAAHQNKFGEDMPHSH

HCT-116 = experiment: Growth inhibition of human HCT116 cells after 48 hrs by sulforhodamine B-based colorimetric assay; assay type: functional, cell-based; conditions: HCT-116, 48 h; for GI50: read-out: GI50
[4] = biological target: T1, DNA topoisomerase 2-alpha; experiment: Inhibition of human topoisomerase-2 alpha-mediated kinetoplast DNA decatenation at 200 uM after 30 mins by ethidium bromide staining based agarose gel electrophoresis
Histone deacetylase 1 [5] = biological target: T2, Histone deacetylase 1; experiment: Inhibition of recombinant human HDAC1 expressed in HEK293T cells at 10 uM using Ac-KGLGK(Ac)-MCA as substrate after 30 mins in presence of DTT by fluorescence assay

T1 sequence (P11388 whole entry): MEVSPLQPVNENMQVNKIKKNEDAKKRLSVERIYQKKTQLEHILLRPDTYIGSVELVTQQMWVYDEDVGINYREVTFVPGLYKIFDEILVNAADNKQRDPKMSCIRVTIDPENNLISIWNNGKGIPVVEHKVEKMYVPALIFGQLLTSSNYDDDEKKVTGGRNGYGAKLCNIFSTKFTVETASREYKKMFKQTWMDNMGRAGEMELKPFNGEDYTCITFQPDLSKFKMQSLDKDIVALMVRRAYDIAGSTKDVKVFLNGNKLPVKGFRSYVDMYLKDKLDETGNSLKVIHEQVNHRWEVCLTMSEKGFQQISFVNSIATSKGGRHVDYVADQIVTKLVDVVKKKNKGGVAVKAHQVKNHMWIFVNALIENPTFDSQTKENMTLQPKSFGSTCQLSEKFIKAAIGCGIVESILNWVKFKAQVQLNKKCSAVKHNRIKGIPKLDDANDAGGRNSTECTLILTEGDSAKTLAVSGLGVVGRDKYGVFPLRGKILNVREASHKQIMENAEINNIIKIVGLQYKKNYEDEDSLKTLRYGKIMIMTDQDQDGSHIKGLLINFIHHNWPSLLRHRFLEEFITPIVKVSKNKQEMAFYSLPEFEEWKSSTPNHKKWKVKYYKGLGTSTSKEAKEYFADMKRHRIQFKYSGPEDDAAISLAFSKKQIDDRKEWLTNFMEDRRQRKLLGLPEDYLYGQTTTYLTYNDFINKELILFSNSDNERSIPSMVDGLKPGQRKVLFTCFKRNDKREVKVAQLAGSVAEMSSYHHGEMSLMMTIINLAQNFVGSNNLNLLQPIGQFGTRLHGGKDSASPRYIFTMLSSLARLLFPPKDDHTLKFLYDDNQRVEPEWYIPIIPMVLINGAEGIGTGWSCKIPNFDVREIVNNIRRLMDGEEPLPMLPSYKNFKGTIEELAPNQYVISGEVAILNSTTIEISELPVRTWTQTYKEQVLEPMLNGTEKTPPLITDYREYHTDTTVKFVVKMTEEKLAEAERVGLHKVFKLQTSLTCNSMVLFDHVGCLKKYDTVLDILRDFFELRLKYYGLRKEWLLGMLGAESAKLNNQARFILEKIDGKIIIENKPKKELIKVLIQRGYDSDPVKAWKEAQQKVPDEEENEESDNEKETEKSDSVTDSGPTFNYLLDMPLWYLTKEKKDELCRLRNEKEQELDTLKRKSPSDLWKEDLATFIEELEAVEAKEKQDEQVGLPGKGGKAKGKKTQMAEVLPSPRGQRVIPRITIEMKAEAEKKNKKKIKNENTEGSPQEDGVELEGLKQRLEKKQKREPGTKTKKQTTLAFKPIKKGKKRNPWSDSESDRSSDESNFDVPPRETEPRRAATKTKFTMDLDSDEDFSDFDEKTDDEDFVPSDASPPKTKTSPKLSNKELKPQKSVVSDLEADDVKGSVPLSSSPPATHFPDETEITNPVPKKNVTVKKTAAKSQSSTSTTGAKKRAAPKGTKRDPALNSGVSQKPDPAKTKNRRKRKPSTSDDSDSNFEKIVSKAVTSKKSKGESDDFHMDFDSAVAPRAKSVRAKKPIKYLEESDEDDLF
T2 sequence (Q13547 whole entry): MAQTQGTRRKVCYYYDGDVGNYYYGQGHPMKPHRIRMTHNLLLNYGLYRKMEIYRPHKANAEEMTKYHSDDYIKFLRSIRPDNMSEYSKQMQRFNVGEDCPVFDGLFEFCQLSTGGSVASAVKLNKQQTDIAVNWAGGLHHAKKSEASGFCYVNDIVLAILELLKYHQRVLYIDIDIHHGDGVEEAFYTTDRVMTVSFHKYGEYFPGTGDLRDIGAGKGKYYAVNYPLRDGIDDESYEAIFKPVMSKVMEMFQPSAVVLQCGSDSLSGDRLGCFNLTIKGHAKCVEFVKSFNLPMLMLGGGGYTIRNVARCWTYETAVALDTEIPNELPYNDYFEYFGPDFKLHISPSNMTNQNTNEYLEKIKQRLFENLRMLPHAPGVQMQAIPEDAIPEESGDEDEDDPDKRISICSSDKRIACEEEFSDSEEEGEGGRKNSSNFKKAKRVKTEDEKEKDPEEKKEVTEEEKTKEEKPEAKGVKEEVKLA

| SMILES | pIC50 [1] | GI50 (MCF7) | GI50 (DU-145) | pIC50 (Histone deacetylase 1 [2]) | pIC50 [3] | GI50 (HCT-116) | other results |
| --- | --- | --- | --- | --- | --- | --- | --- |
| COc1ccc(C2([C@H]3C[C@H](n4cc(C)c(=O)[nH]c4=O)O[C@@H]3CO[Si](C)(C)C(C)(C)C)SCCCS2)cc1OC | 4.72 | 3.31 µM | 3.72 µM | < 5.00 | < 5.00 | 3.63 µM |  |
| CC(C)(C)[Si](C)(C)OC[C@H]1OC(=O)C[C@@H]1C1(c2ccccc2)SCCCS1 | 4.58 |  |  |  |  |  |  |
| COc1ccc(C2([C@H]3CC(=O)O[C@@H]3CO[Si](C)(C)C(C)(C)C)SCCCS2)cc1OC | 4.26 |  |  |  |  |  |  |
| COc1cc([C@@H]2c3cc4c(cc3[C@@H](O[C@@H]3O[C@@H]5CO[C@@H](C)O[C@H]5[C@H](O)[C@H]3O)[C@H]3COC(=O)[C@H]23)OCO4)cc(OC)c1O |  |  |  |  |  |  | inhibition [4]: Active |
| Cc1cn([C@@H]2C[C@H](C3(c4ccc(NC(=O)CCCCC(=O)NO)cc4)SCCCS3)[C@@H](CO[Si](C)(C)C(C)(C)C)O2)c(=O)[nH]c1=O |  | 5.37 µM | 49 µM | 5.55 | 6.23 | 26.3 µM |  |
| Cc1cn([C@@H]2C[C@H](C3(c4ccc(NC(=O)CCCCCC(=O)NO)cc4)SCCCS3)[C@@H](CO[Si](C)(C)C(C)(C)C)O2)c(=O)[nH]c1=O |  | 17.8 µM | 28.8 µM | 6.23 | 7.09 | 14.8 µM |  |
| Cc1cn([C@H]2C[C@H](C3(c4ccc(NC(=O)CCCCCCC(=O)O)cc4)SCCCS3)[C@@H](CO[Si](C)(C)C(C)(C)C)O2)c(=O)[nH]c1=O |  |  |  |  |  |  | inhibition (Histone deacetylase 1 [5]): inactive; pIC50 (MCF7): 4.91; pIC50 (DU-145): 4.81; pIC50 (HCT-116): 4.91 |
| CC(/C=C/C(=O)NO)=C\C(C)C(=O)c1ccc(C2([C@H]3CC(=O)O[C@@H]3CO[Si](C)(C)C(C)(C)C)SCCCS2)cc1 (stereo not given in full) | 5.52 |  |  | 5.92 |  |  |  |

The next lines start with results.

| pIC50 [1] | GI50 (MCF7) | GI50 (DU-145) | pIC50 (Histone deacetylase 1 [2]) | pIC50 [3] | GI50 (HCT-116) | SMILES | other results |
| --- | --- | --- | --- | --- | --- | --- | --- |
|  | 5.5 µM | 14.8 µM | 5.60 | 6.25 | 26.3 µM | Cc1cn([C@H]2C[C@H](C3(c4ccc(NC(=O)CCCCC(=O)NO)cc4)SCCCS3)[C@@H](CO[Si](C)(C)C(C)(C)C)O2)c(=O)[nH]c1=O |  |
|  | 15.4 µM | 20.9 µM | 6.05 | 6.96 | 17.4 µM | Cc1cn([C@H]2C[C@H](C3(c4ccc(NC(=O)CCCCCC(=O)NO)cc4)SCCCS3)[C@@H](CO[Si](C)(C)C(C)(C)C)O2)c(=O)[nH]c1=O |  |
